The record followed here is patent publication US7326700B2, “Cyclohexenyl phenyl carboxamides tocolytic oxytocin receptor antagonists” (Wyeth, priority 2001, dated 2008).

For series [1], the target named is T1, human vasopressin V1a receptor subtype (Homo sapiens, UniProt P37288).
T1 construct: host or cells: CHO cells, stably transfected (pZeoSV vector for the Thibonnier line)
Nature of the series: Vasopressin binding in CHO cell membranes expressing human vasopressin V1a subtype receptors ([3H]Manning ligand radioligand binding). Particulars: for IC50: value in parentheses. The source says:
Chinese hamster ovary cells (CHO cells) stably transfected with the human vasopressin V1a subtype receptors were either obtained from Biosignal Inc., 1744 rue Williams, Montreal, Quebec, Canada or obtained from M. Thibonnier, Case Western Reserve University School of Medicine, Cleveland, Ohio.
CHO cells transfected with the human vasopressin V1a subtype receptors obtained from M. Thibonnier (pZeoSV vector) are allowed to grow to confluency (approx. >90%) in T-150 flasks under sterile conditions, in a cell culture medium consisting of F-12 Nutrient Mixture (HAM) with L-glutamine (Gibco Cat. #11765-054) containing 15 mM HEPES (Gibco Cat. #15630-080), 1% antibiotic/antimycotic (add 5 mL 100×, Gibco Cat. #15240-062 per 500 mL F-12), 250 μg/mL Zeocin (add 1.25 mL of 100 mg/mL Invitrogen R-250-01 per 500 mL F-12) and 10% Fetal Bovine Serum (Qualified, heat inactivated, Gibco Cat. #16140-063). The medium is removed by aspiration and the cells are washed with 10 mL of Hank's Balanced Salt solution (Gibco Cat. #14175-095). The salt solution is removed by aspiration and the cells are trypsinized with 5 mL of trypsin-EDTA (0.05% trypsin, 0.53 mM EDTA-4Na, Gibco Cat. #25300-070) for 1 min. The trypsin is removed by aspiration and the cells dislodged by tapping. Cell Culture medium (eg, 30 mL for 1:30 split) is immediately added and mixed well to inactivate trypsin. 1 mL of detached cells is added to new culture flasks containing fresh cell culture medium (eg, into 25 mL per T-150 flask), and mixed gently. The cells are incubated at 37° C. in 5% CO2. The medium is changed at 3 to 4 days interval (or as appropriate). The cells grow to confluency (approx. >75%-95%) within 7-8 days. All steps are done under sterile conditions.
The cells are washed twice gently with Hank's Balanced Salt solution (e.g,. use 10 mL per T-150 flask). The excess is removed and the cells are bathed for 15-30 min. in an enzyme-free Cell Dissociation Buffer (e.g. use 8 mL Hank's Based, Gibco Cat. #13150-016 per T-150 flask) until the cells are loosened. The contents are transferred to centrifuge tubes (50 mL) kept in an ice bath. All subsequent steps are done at 4° C. The tubes are centrifuged at 300×g for 15 min (1380 rpm on SORVAL, Model RT6000D, using the rotor for 50 mL tubes). The supernatant is discarded and the cells suspended in homogeneizing buffer (10 mM Tris-HCl containing 0.25 M sucrose and 1 mM EDTA, pH 7.4) ensuring that the volume of the buffer is about ten times the volume of the cell pellet. The cells are pooled into a centrifuge tube (50 mL) and homogenized with Polytron at setting 6 for 10 sec. The homogenate is transferred into a Potter-Elvjehm homogenizer and homogenized with 3 strokes. The homogenate is centrifuged at 1500×g for 10 min at 4° C. (3100 rpm using SORVAL, model RT6000D, using the rotor for 50 mL tubes). The pellet is discarded. The supernatant is centrifuged at 100,000×g for 60 min. at 4° C. (Beckman L8-80M ultracentrifuge; spin at 37,500 rpm with rotor type 70 Ti for 50 mL tubes; 38,000 rpm with type 80Ti for 15 mL tubes; or 35,800 rpm with rotor type 45Ti). The supernantant is discarded and the pellet suspended in 3 to 4 mL of Tris buffer (50 mM TRIS-HCl, pH 7.4). The protein content is estimated by the Bradford or Lowry method. The volume of the membrane suspension is adjusted with the membrane buffer (50 mM Tris-HCl containing 0.1% BSA and 0.1 mM PMSF) to give 3.0 mg/mL (or as appropriate) of protein. The membranes are aliquoted and stored at −70° C.
In wells of a 96-well format microtiter plate, is added 90, 110 or 130 μL (to make up a final volume of 200 μL) of assay buffer containing 50 mM of Tris-HCl (pH 7.4), BSA (heat inactivated, protease-free), […], 1 mg % aprotinin, 1 mg % leupeptin, 2 mg % 1,10-phenanthroline, 10 mg % trypsin inhibitor, and 0.1 mM PMSF. The inhibitors are added on the day of the experiment. […]

T1 sequence (P37288 whole entry): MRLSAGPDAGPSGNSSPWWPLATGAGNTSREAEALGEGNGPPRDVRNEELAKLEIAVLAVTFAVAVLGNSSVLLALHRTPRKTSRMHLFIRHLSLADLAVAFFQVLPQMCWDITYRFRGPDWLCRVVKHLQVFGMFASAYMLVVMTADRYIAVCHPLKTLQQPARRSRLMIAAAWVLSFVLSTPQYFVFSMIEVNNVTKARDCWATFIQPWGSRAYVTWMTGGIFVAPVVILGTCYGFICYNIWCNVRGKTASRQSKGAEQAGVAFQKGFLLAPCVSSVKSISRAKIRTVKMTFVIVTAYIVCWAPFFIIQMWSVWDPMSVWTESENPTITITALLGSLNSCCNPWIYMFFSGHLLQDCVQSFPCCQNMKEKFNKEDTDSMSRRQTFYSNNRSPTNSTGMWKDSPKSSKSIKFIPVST

Compound `COc1cc(C2=CCCCC2)c(Cl)cc1C(=O)N1Cc2ccc(C(=O)N3CCC[C@H]3CN3CCCC3)n2Cc2ccccc21` [Example 1, 4-Chloro-5-cyclohex-1-en-1-yl-2-[(3-{[(2S)-2-(pyrrolidin-1-ylmethyl)pyrrolidin-1-yl]carbonyl}-5H-pyrrolo [2,1-c][1,4]benzodiazepin-10(11H)-yl)carbonyl]phenyl methyl ether] displayed a melting point of 109 to 121 °C. Further, the IC50 in series [1] is 1280 nM. For `CC1=C(c2ccc(C(=O)N3Cc4ccc(C(=O)N5CCN(C)CC5)n4Cc4ccccc43)cc2C)CCC[C@H]1O` [Example 11, [4-((3R)-3-Hydroxy-2-methyl-cyclohex-1-en-1-yl)-3-methyl-phenyl]-[3-(4-methyl-piperazine-1-carbonyl)-10,11-dihydro-5H-pyrrolo [2,1-c][1,4]benzodiazepin-10-yl]-methanone], the melting point fell in the range of 102 to 153 °C. In addition, the inhibition at 0.1 µM in series [1] (100 nM) is 26%. Take `C=CCN1CCN(C(=O)c2ccc3n2Cc2ccccc2N(C(=O)c2ccc(C4=CCCCC4)c(C)c2)C3)CC1` [Example 24, (4-Allyl-1-piperazinyl){10-[4-(1-cyclohex-1-en-1-yl)-3-methylbenzoyl]-10,11-dihydro-5H-pyrrolo[2,1-c][1,4]benzodiazepin-3-yl}methanone]: the “V1a % inhibition @ 100 nM” value in series [1] (100 nM) turned out to be 12%. As to `Cc1cc(C(=O)N2Cc3ccc(C(=O)N4CCN(C(C)C)CC4)n3Cc3ccccc32)ccc1C1=CCCCC1` [Example 25, {10-[4-(1-Cyclohex-1-en-1-yl)-3-methylbenzoyl]-1 0,11-dihydro-5H-pyrrolo[2,1-c][1,4]benzodiazepin-3-yl}(4-isopropyl-1-piperazinyl)methanone], in series [1] (100 nM), the “V1a % inhibition @ 100 nM” value is on record as 24%. Regarding `Cc1cc(C(=O)N2Cc3ccc(C(=O)N4CCC[C@H]4CN4CCCC4)n3Cc3ccccc32)ccc1C1=CCCCC1` [Example 26, {10-[4-(1-Cyclohex-1-en-1-yl)-3-methylbenzoyl]-10,11-dihydro-5H-pyrrolo[2,1-c][1,4]benzodiazepin-3-yl}[(2S)-2-(1-pyrrolidinylmethyl)pyrrolidinyl]methanone], the “V1a % inhibition @ 100 nM” value in series [1] (100 nM) came to 38%.

For `Cc1cc(C(=O)N2Cc3ccc(C(=O)N4CC[C@@H](N(C)C)C4)n3Cc3ccccc32)ccc1C1=CCCCC1` [Example 27, {10-[4-(1-Cyclohex-1-en-1-yl)-3-methylbenzoyl]-10,11-dihydro-5H-pyrrolo[2,1-c][1,4]benzodiazepin-3-yl}[(3R)-3-(dimethylamino)pyrrolidinyl]methanone], the “V1a % inhibition @ 100 nM” value in series [1] (100 nM) is given as 62%. Turning to “{10-[4-(1-Cyclohexen-1-yl)-3-methylbenzoyl]-10,11-dihydro-5H-pyrrolo[2,1-c][1,4]benzodiazepin-3-yl}(4-methyl-piperazin-1-yl)methanone [Example 12]”, the half-maximal inhibitory concentration (IC50) in series [1] stood at 421 nM.
